According to patent US8008291B2 (Mimetica Pty Ltd, priority 2008, dated 2011):

Target: T1, human MC5R (hMC5R) (Homo sapiens, UniProt P33032)
T1 construct: purchased Perkin Elmer RBXMC5M400UA
Assay: Human MC5R radioligand binding assay (membranes, [125I] NDP-MSH displacement)
Conditions: hMC5R binding; tested as trifluoroacetate or hydrochloride salts, or free bases; read-out: MC5R radioligand IC50
Description: Assessments of compound binding to human MC5R (hMC5R) ) by displacement of an ^125I-labeled NDP-MSH receptor ligand peptide were performed essentially as described in the data sheets produced by Perkin Elmer to accompany their frozen hMC5R membranes (Perkin Elmer catalog number RBXMC5M400UA).
[^125I] NDP-MSH: radiolabeled in house and purified by HPLC:
• Na^125I (0.5 mCi, 17.4 Ci/mg) was added to 50 μL sodium phosphate (50 mM, pH7.4) in an eppendorf tube precoated with IODOGEN. After incubation for 10 mins the phosphate buffer containing the iodine was added to NDP-MSH (10 ul at 1 mg/mL) in a separate eppendorf tube. This was incubated for a further 10 mins. The iodinated NDP-MSH was purified by HPLC on a Zorbax SB 300 column using solvent A: 0.05% TFA and solvent B: 90% acetonitrile 0.045% TFA with a linear gradient, 0-67% B over 60 mins. […] Resuspended membranes were kept on ice until they were added to the wells of the plate. Binding Protocol for 400 microassays per vial: • Assays were performed in 96 well polypropylene plates. […] This was incubated for 1 hr at 37° C.

T1 sequence (P33032 whole entry): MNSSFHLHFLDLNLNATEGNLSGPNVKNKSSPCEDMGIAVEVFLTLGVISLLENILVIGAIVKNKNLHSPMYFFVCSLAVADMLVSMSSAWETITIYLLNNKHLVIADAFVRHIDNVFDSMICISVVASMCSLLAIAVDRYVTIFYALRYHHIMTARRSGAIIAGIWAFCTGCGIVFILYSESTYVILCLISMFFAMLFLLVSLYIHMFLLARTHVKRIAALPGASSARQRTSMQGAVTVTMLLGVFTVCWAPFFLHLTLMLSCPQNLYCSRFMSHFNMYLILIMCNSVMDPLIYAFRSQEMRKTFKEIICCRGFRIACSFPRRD

IC50 [nM] | Structure (SMILES)
< 1000 | C[C@H](CN1CC[C@@H](CNC(=O)c2ccc3ccccc3c2)N[C@@H](CCN2CCCCC2)C1=O)c1ccc(Cl)cc1 [Compound 424, N-(((3S,5S)-1-((S)-2-(4-chlorophenyl)propyl)-2-oxo-3-(2-(piperidin-1-yl)ethyl)-1,4-diazepan-5-yl)methyl)-2-naphthamide]
< 1000 | O=C1[C@H](CCN2CCCCC2)N[C@H](CN2C(=O)c3cc(Cl)c(Cl)cc3C2=O)CCN1Cc1cc(Cl)cc(Cl)c1 [Compound 535, 5,6-dichloro-2-(((3S,5S)-1-(3,5-dichlorobenzyl)-2-oxo-3-(2-(piperidin-1-yl)ethyl)-1,4-diazepan-5-yl)methyl)isoindoline-1,3-dione]
< 10000 | NCCC[C@@H]1N[C@H](CNC(=O)c2ccc3ccccc3c2)CCN(Cc2cc(Cl)ccc2Cl)C1=O [Compound 314, N-(((3S,5S)-3-(3-aminopropyl)-1-(2,5-dichlorobenzyl)-2-oxo-1,4-diazepan-5-yl)methyl)-2-naphthamide]
< 1000 | NC[C@@H]1N[C@H](CNC(=O)c2ccc3ccccc3c2)CCN(CC(c2ccccc2)c2ccccc2)C1=O [Compound 271, N-(((3S,5S)-3-(aminomethyl)-1-(2,2-diphenylethyl)-2-oxo-1,4-diazepan-5-yl)methyl)-2-naphthamide]
< 10000 | CC[C@@H](CN1CC[C@@H](CNC(=O)c2ccc3ccccc3c2)N[C@@H](CCCN)C1=O)c1ccccc1 [Compound 390, N-(((3S,5S)-3-(3-aminopropyl)-2-oxo-1-((R)-2-phenylbutyl)-1,4-diazepan-5-yl)methyl)-2-naphthamide]
< 1000 | N=C(N)NCCC[C@@H]1N[C@H](CNC(=O)c2ccc3ccccc3c2)CCN(Cc2cc(F)cc(F)c2)C1=O [Compound 311, N-(((3S,5S)-1-(3,5-difluorobenzyl)-3-(3-guanidinopropyl)-2-oxo-1,4-diazepan-5-yl)methyl)-2-naphthamide]
< 100 | NCC[C@@H]1N[C@H](CNC(=O)c2ccc3cc(Cl)ccc3c2)CCN(CC(c2ccccc2)c2ccccc2)C1=O [Compound 366, N-(((3S,5S)-3-(2-aminoethyl)-1-(2,2-diphenylethyl)-2-oxo-1,4-diazepan-5-yl)methyl)-6-chloro-2-naphthamide]
< 1000 | CC[C@H](CN1CC[C@@H](CNC(=O)c2ccc(Cl)c(Cl)c2)N[C@@H](CCNC(C)C(F)(F)F)C1=O)c1ccccc1 (stereo partly drawn) [Compound 491, 3,4-dichloro-N-(((3S,5S)-2-oxo-1-((S)-2-phenylbutyl)-3-(2-(1,1,1-trifluoropropan-2-ylamino)ethyl)-1,4-diazepan-5-yl)methyl)benzamide]
< 10 | CC(C)NCC[C@@H]1N[C@H](CNC(=O)c2ccc3cc(Cl)ccc3c2)CCN(Cc2cc(Cl)cc(Cl)c2)C1=O [Compound 438, 6-chloro-N-(((3S,5S)-1-(3,5-dichlorobenzyl)-3-(2-(isopropylamino)ethyl)-2-oxo-1,4-diazepan-5-yl)methyl)-2-naphthamide]
< 100 | CCC[C@@H](CN1CC[C@@H](CNC(=O)c2ccc3ccccc3c2)N[C@@H](CCN2CCCCC2)C1=O)c1ccccc1 [Compound 432, N-(((3S,5S)-2-oxo-1-((R)-2-phenylpentyl)-3-(2-(piperidin-1-yl)ethyl)-1,4-diazepan-5-yl)methyl)-2-naphthamide]
< 10000 | CC(=O)N[C@H](Cc1ccc2ccccc2c1)[C@@H]1CCN(CC(c2ccccc2)c2ccccc2)C(=O)[C@H](CCCNC(=N)N)N1 [Compound 85, N—((R)-1-((3S,5S)-1-(2,2-diphenylethyl)-3-(3-guanidinopropyl)-2-oxo-1,4-diazepan-5-yl)-2-(naphthalen-2-yl)ethyl)acetamide]
< 1000 | N=C(N)NCCC[C@@H]1N[C@H](CNC(=O)/C(F)=C/c2ccccc2)CCN(CC(c2ccccc2)c2ccccc2)C1=O [Compound 195, (Z)-N-(((3S,5S)-1-(2,2-diphenylethyl)-3-(3-guanidinopropyl)-2-oxo-1,4-diazepan-5-yl)methyl)-2-fluoro-3-phenylacrylamide]
< 1000 | CC(=O)N[C@@H](Cc1cnc[nH]1)C(=O)N[C@@H](Cc1ccc2ccccc2c1)[C@@H]1CCN(CC(c2ccccc2)c2ccccc2)C(=O)[C@H](CCCNC(=N)N)N1 [Compound 81, (S)-2-acetamido-N-((S)-1-((3S,5S)-1-(2,2-diphenylethyl)-3-(3-guanidinopropyl)-2-oxo-1,4-diazepan-5-yl)-2-(naphthalen-2-yl)ethyl)-3-(1H-imidazol-5-yl)propanamide]
< 100 | CCC(CN1CC[C@@H](CNC(=O)/C=C/c2ccc(Cl)cc2)N[C@@H](CCN)C1=O)c1ccccc1 (stereo partly drawn) [Compound 353, (E)-N-(((3S,5S)-3-(2-aminoethyl)-2-oxo-1-(2-phenylbutyl)-1,4-diazepan-5-yl)methyl)-3-(4-chlorophenyl)acrylamide]
< 1000 | CCC(CC)CN1CC[C@@H](CNC(=O)c2ccc3ccccc3c2)N[C@@H](CCCNC(=N)N)C1=O [Compound 297, N-(((3S,5S)-1-(2-ethylbutyl)-3-(3-guanidinopropyl)-2-oxo-1,4-diazepan-5-yl)methyl)-2-naphthamide]
< 10000 | NCC[C@@H]1N[C@H](CNC(=O)c2cccc(C(F)(F)F)c2)CCN(CC(c2ccccc2)c2ccccc2)C1=O [Compound 437, N-(((3S,5S)-3-(2-aminoethyl)-1-(2,2-diphenylethyl)-2-oxo-1,4-diazepan-5-yl)methyl)-3-(trifluoromethyl)benzamide]
< 100 | CC[C@H](CN1CC[C@@H](CNC(=O)c2ccc3ccccc3c2OC)N[C@@H](CCN2CCCCC2)C1=O)c1ccccc1 [Compound 538, 1-methoxy-N-(((3S,5S)-2-oxo-1-((S)-2-phenylbutyl)-3-(2-(piperidin-1-yl)ethyl)-1,4-diazepan-5-yl)methyl)-2-naphthamide]
< 100 | CC[C@H](CN1CC[C@@H](CNC(=O)c2ccc(-c3ccccc3)cc2)N[C@@H](CCN2CCCCC2)C1=O)c1ccccc1 [Compound 495, N-(((3S,5S)-2-oxo-1-((S)-2-phenylbutyl)-3-(2-(piperidin-1-yl)ethyl)-1,4-diazepan-5-yl)methyl)biphenyl-4-carboxamide]
< 1000 | N=C(N)NCCC[C@@H]1N[C@H](CNC(=O)c2ccc3ccccc3c2)CCN(C[C@@H](NC(=O)C2CCC2)c2ccccc2)C1=O [Compound 269, N-(((3S,5S)-1-((S)-2-(cyclobutanecarboxamido)-2-phenylethyl)-3-(3-guanidinopropyl)-2-oxo-1,4-diazepan-5-yl)methyl)-2-naphthamide]
< 1000 | N=C(N)NCCC[C@@H]1N[C@H](CNC(=O)c2cc3ccccc3[nH]2)CCN(CC(c2ccccc2)c2ccccc2)C1=O [Compound 109, N-(((3S,5S)-1-(2,2-diphenylethyl)-3-(3-guanidinopropyl)-2-oxo-1,4-diazepan-5-yl)methyl)-1H-indole-2-carboxamide]
< 1000 | O=C(NC[C@@H]1CCN(CC(c2ccccc2)c2ccccc2)C(=O)[C@H](CCN2CCCCC2)N1)OCc1ccccc1 [Compound 412, benzyl ((3S,5S)-1-(2,2-diphenylethyl)-2-oxo-3-(2-(piperidin-1-yl)ethyl)-1,4-diazepan-5-yl)methylcarbamate]
< 1000 | NCCCC[C@@H]1N[C@H](CNC(=O)Cc2ccc(-c3ccccc3)cc2)CCN(Cc2ccc3ccccc3c2)C1=O [Compound 121, N-(((3S,5S)-3-(4-aminobutyl)-1-(naphthalen-2-ylmethyl)-2-oxo-1,4-diazepan-5-yl)methyl)-2-(biphenyl-4-yl)acetamide]
